Results reported in US20030225152A1, “3-(Arylamino)methylene-1, 3-dihydro-2h-indol-2-ones as kinase inhibitors” (priority 2001, published 2003).
pIC50: −log10 of the molar value.

Legend:
[1] = target: T1, cytoplasmic domain of the human VEGF receptor (VEGFR-2) (Homo sapiens, UniProt P35968); test: KDR Assay; assay type: biochemical; conditions: His-VEGFR-2; 3.6 μM ATP
T1 construct: The cytoplasmic domain of the human VEGF receptor (VEGFR-2) was expressed as a Histidine-tagged fusion protein; Histidine tag
How it was run: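 His-tagged human VEGFR-2 cytoplasmic domain from baculovirus-infected insect cells, acting on poly-Glu-Tyr (4:1)-coated plates with 3.6 μM ATP in Hepes pH 7.4 with MgCl2/MnCl2 and 5% final DMSO, 10 min at 25 °C. Phosphotyrosine detected by peroxidase-conjugated antibody ELISA at 492 nm; IC50 from blank-subtracted OD versus concentration.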

[2] = test system: VEGF induced increases in intracellular calcium levels in HUVEC (human umbilical vein endothelial cells); test: VEGF Stimulated Ca++ Signal in vitro (FLIPR); assay type: cell-based; conditions: VEGF 5 ng/mL; for pIC50: 0.01 to 10.0 μM
How it was run: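 HUVEC loaded with Fluo-4 (45 min, 37° C.), washed, then pre-incubated 30 min with compound (10 μM single dose or 0.01–10.0 μM; 0.1% DMSO) before 5 ng/mL VEGF. Fluorescence at 516 nm read by FLIPR; IC50 from % inhibition of max-min VEGF response.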

T1 sequence (P35968 786-1356): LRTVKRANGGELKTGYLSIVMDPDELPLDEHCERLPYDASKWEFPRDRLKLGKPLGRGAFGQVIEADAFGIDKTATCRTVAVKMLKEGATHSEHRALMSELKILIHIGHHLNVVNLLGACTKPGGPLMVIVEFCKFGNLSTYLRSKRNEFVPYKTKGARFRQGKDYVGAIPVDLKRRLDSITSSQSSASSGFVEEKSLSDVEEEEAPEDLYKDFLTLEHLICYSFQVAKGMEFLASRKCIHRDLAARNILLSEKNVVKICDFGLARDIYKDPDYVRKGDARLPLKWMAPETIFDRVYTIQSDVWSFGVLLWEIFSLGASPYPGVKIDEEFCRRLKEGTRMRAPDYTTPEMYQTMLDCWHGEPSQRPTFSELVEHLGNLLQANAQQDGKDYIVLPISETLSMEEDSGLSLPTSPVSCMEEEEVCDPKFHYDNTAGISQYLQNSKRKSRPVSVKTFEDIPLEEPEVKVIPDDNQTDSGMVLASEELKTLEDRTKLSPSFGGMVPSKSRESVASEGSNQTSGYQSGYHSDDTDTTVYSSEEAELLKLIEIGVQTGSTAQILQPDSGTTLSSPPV

| Structure (SMILES) | pIC50 [1] | inhibition at 10 µM ([2]; Homo sapiens) [%] | pIC50 ([2]; Homo sapiens) | pIC50 [2] |
| --- | --- | --- | --- | --- |
| O=C1Nc2ccc(F)cc2C1=CNc1ccc(CO)cc1 [Example 178, 5-Fluoro-3-[(4-hydroxymethyl-phenylamino)-methylene]-1,3-dihydro-indol-2-one] | 6.28 | 98.8 | 5.97 |  |
| Nc1ccc(NC=C2C(=O)Nc3ccccc32)cc1 [Example 180, 3-[(4-Amino-phenylamino)-methylene]-1,3-dihydro-indol-2-one] | 6.36 | 98.3 | 5.99 |  |
| CC(O)c1cccc(NC=C2C(=O)Nc3ccccc32)c1 (centres unmarked) [Example 182, 3-{[3-(1-Hydroxy-ethyl)-phenylamino]-methylene}-1,3-dihydro-indol-2-one] | 5.78 | 99.3 | 6.02 |  |
| Cc1cccc2c1C(=CNc1cccc(C(C)O)c1)C(=O)N2 (centres unmarked) [Example 183, 3-{[3-(1-Hydroxy-ethyl)-phenylamino]-methylene}-4-methyl-1,3-dihydro-indol-2-one] | 6.28 | 98.9 | ≥ 6.00 | 6.12 |
| O=C1Nc2ccccc2C1=CNc1cccc(CO)c1 [Example 184, 3-[(3-Hydroxymethyl-phenylamino)-methylene]-1,3-dihydro-indol-2-one] | 6.21 | 98.2 | 5.81 |  |
| Cc1cccc2c1C(=CNc1cccc(CO)c1)C(=O)N2 [Example 185, 3-[(3-Hydroxymethyl-phenylamino)-methylene]-4-methyl-1,3-dihydro-indol-2-one] | 6.48 | 98.4 | ≥ 6.00 | 6.06 |

Now from value to compound, other results behind:

| pIC50 [1] | Structure (SMILES) | inhibition at 10 µM ([2]; Homo sapiens) [%] | pIC50 ([2]; Homo sapiens) | pIC50 [2] |
| --- | --- | --- | --- | --- |
| 6.05 | CC(C)(C)OC(=O)Nc1ccc(NC=C2C(=O)Nc3ccccc32)cc1 [Example 186, {4-[(2-Oxo-1,2-dihydro-indol-3-ylidenemethyl)-amino]-phenyl}-carbamic acid tert-butyl ester] | 99 | 5.72 |  |
| 6.57 | Cc1cccc2c1C(=CNc1ccc(NC(=O)OC(C)(C)C)cc1)C(=O)N2 [Example 187, {4-[(4-Methyl-2-oxo-1,2-dihydro-indol-3-ylidenemethyl)-amino]-phenyl}-carbamic acid tert-butyl ester] | 96.8 | 5.78 |  |
| 6.74 | CCN(CC)c1ccc(NC=C2C(=O)Nc3ccccc32)cc1 [Example 188, 3-[(4-Diethylamino-phenylamino)-methylene]-1,3-dihydro-indol-2-one] | 98 | ≥ 6.00 | 6.28 |
| 7.15 | CCN(CC)c1ccc(NC=C2C(=O)Nc3cccc(C)c32)cc1 [Example 189, 3-[(4-Diethylamino-phenylamino)-methylene]-4-methyl-1,3-dihydro-indol-2-one] | 98.2 |  |  |
| 5.16 | O=C1Nc2ccccc2C1=CNc1cccc(S(=O)(=O)N(CCO)CCO)c1 [Example 190, N,N-Bis-(2-hydroxy-ethyl)-3-[(2-oxo-1,2-dihydro-indol-3-ylidenemethyl)-amino]-benzenesulfonamide] | 54.1 | 5.00 |  |
| 6.15 | Cc1cccc2c1C(=CNc1cccc(S(=O)(=O)N(CCO)CCO)c1)C(=O)N2 [Example 191, N,N-Bis-(2-hydroxy-ethyl)-3-[(4-methyl-2-oxo-1,2-dihydro-indol-3-ylidenemethyl)-amino]-benzenesulfonamide] | 98.7 | 5.62 |  |
| 6.23 | O=C1Nc2ccccc2C1=CNc1ccc(S(=O)(=O)NCCO)cc1 [Example 192, N-(2-Hydroxy-ethyl)-4-[(2-oxo-1,2-dihydro-indol-3-ylidenemethyl)-amino]-benzenesulfonamide] | 98.7 | 5.82 |  |
| 5.61 | O=C1Nc2ccccc2C1=CNc1cccc(S(=O)(=O)NCCCO)c1 [Example 193, N-(3-Hydroxy-propyl)-3-[(2-oxo-1,2-dihydro-indol-3-ylidenemethyl)-amino]-benzenesulfonamide] | 81.5 | 5.32 |  |
